In US8404869B2, “Phenanthrenequinone-based compound and pharmaceutical composition containing the same for the treatment or prevention of disease involving metabolic syndrome” (Mazence Inc., priority 2007, dated 2013):

What was measured:
[1] = tested on: C57BL/6JL Lep ob/Lep ob mice; experiment: Blood biomarkers (lipid, glucose, enzyme levels) in ob/ob mice; format: in vivo; set-up: unit not given here; conditions: after mixed-feed of 0.4% for 18 days
Experimental: (§1) 10-week-old C57BL/6JL Lep ob/Lep ob male mice having obesity characteristics and predisposition were purchased from Daehan Biolink Co., Ltd. (Chungchongbuk-do, Korea). Animals were raised in a breeding room maintained at a temperature of 23° C., 55% humidity, illumination of 300 to 500 lux, a 12-h light/dark (L/D) cycle, and ventilation of 10 to 18 times/hr. Animals were fed ad libitum pellets of Purina Rodent Laboratory Chow 5001 (purchased from Purina Mills Inc., St. Louis, Mo., USA) as a solid feed for experimental animals and tap water as drinking water. Mice were allowed to acclimate to new environment of the breeding room for two weeks and were then administered some pyrano-3,4-phenanthrenequinone or furano-3,4-naphthoquinone derivatives synthesized according to the present invention at mixed-feed of 0.4% for 18 days. Observation was made on changes in body weight, blood glucose and dietary intake, with respect to a time course of administration. After administration was complete, confirm changes in glucose, lipid and enzyme levels in blood.
(§2) For comparison, the same experiments were carried out for the subject (negative control group) to which the active ingredient was not administered, and subject (positive control group) to which Cryptotanshinone, extracted from Danshen by a method as set forth in Example 1 of the Korean Patent Application No. 2004-0116339 by the present applicant, was administered by the above-mentioned condition.

AMPK = experiment: Determination of AMPK activation in differentiated C2C12 myoblast cells (SAMS peptide, [γ-32P]ATP); format: cell-based; conditions: C2C12 myoblast cells treated at 5 μg/ml; DMSO (0.5%) control = 1
Experimental: Myoblast cells, C2C12, were cultured in DMEM containing 10% bovine calf serum. When a cell density reached a range of about 85% to 90%, the culture medium was replaced with a medium containing 1% bovine calf serum to induce differentiation of cells. The thus-differentiated myoblast cells were treated with samples synthesized in Examples 1 through 16 at a concentration of 5 μg/ml, and compared with a control group. Enzymatic activity of AMPK was determined as follows. Firstly, C2C12 cells were lysed to obtain protein extracts and then ammonium sulfate was added to a final concentration of 30%, thereby precipitating proteins. Protein precipitates were dissolved in a buffer (62.5 mM Hepes, pH 7.2, 62.5 mM NaCl, 62.5 mM NaF, 1.25 mM Na pyrophosphate, 1.25 mM EDTA, 1 mM DTT, 0.1 mM PMSF, and 200 μM AMP). Thereafter, 200 μM SAMS peptide (HMRSAMSGLHLVKRR: the underlined serine residue is a phosphorylation site, as an AMPK phosphorylation site of acetyl-CoA carboxylase) and [γ-32P]ATP were added thereto and reactants were reacted for 10 minutes at 30° C. This was followed by spotting of the resulting reaction solution on p81 phosphocellulose paper. The p81 paper was washed with a 3% phosphoric acid solution and radioactivity thereof was measured. For each reaction condition, reactions involving no SAMS peptide were also conducted and basic values were subtracted from the thus-observed values.

[2] = tested on: C57BL/6JL Lep ob/Lep ob mice; experiment: Weight loss effects in obese mice (ob/ob); format: in vivo; conditions: mixed-feed of 0.4% for 18 days; for Final BW: ob/ob male mice
Experimental: as §1, §2
Herein, ‘Increase in BW’ is calculated as the following; Increase in BW=(Final BW−Initial BW)/Initial BW×100

SMILES | GOT ([1]; listed as Ex. 3) | GPT ([1]; listed as Ex. 3) | HDL chol ([1]; listed as Ex. 3) | LDL chol ([1]; listed as Ex. 3) | T. chol ([1]; listed as Ex. 3) | glucose ([1]; listed as Ex. 3) | triglyceride ([1]; listed as Ex. 3) | AMPK fold (AMPK) | Increase in BW ([2]; (Final BW−Initial BW)/Initial BW×100) | Final BW [2] | GOT [1] | GPT [1] | HDL chol [1] | LDL chol [1] | T. chol [1] | glucose [1] | triglyceride [1] | change in vivo at 0.4 % in feed ([2]; Mus musculus, po, 432 h, (Final BW−Initial BW)/Initial BW×100, read-out: Increase in BW)
CC1CC2=C(O1)c1ccc3c(c1C(=O)C2=O)CCCC3(C)C (single isomer, unassigned) [Example 3, 2,6,6-Trimethyl-1,2,6,7,8,9-hexahydro-phenanthro[1,2-b]furan-10,11-dione] | 247.5 | 160.0 | 42.5 | 12.00 | 134.0 | 132 | 61.7 | 2.2 fold | −11.9% | 46.1 ± 2.1 g |  |  |  |  |  |  |  | 
CC1OC2=C(C(=O)C(=O)c3c2ccc2ccc(C(C)(C)C)cc32)C1(C)C (centres unmarked) [Example 12, 8-tert-Butyl-1,1,2-trimethyl-1,2-dihydro-phenanthro[1,2-b]furan-10,11-dione] |  |  |  |  |  |  |  | 2.2 fold |  | 48.3 ± 2.3 g | 355.0 | 77.0 | 48.0 | 11.00 | 135.0 | 153 | 69.0 | -6.9%
